According to ChEMBL document CHEMBL1128186, “Steroidal spiro-gamma-lactones that inhibit 17 beta-hydroxysteroid dehydrogenase activity in human placental microsomes” (J Med Chem, 1995):

test: The compound was tested at a concentration of 1 uM for inhibitory activity against 17 beta-hydroxysteroid dehydrogenase from human placental microsomes

Row | Compound | inhibition [%]
1 | C[C@]12CCC(=O)C=C1C(=O)CC1C2CC[C@@]2(C)C1CC[C@@]21CCC(=O)O1 (some centres undefined) | 3
2 | C[C@]12CC[C@@H]3c4ccc(O)cc4CC[C@H]3[C@@H]1CC[C@@]21CCC(=O)O1 | 81
3 | C[C@]12C=CC(=O)C=C1CCC1C2CC[C@@]2(C)C1CC[C@@]21CCC(=O)O1 (some centres undefined) | 6
4 | C[C@]12CC[C@@]3(CCC(=O)O3)CC1CC[C@@H]1[C@@H]2CC[C@@]2(C)[C@H]1CC[C@@]21CCC(=O)O1 (some centres undefined) | 11
5 | C[C@]12CC[C@@H]3c4ccc(OCc5ccccc5)cc4CC[C@H]3[C@@H]1CC[C@@]21CCC(=O)O1 | 11

Second part, the molecule after the results:

Row | inhibition [%] | Compound
6 | 55 | COc1ccc2c(c1)CC[C@@H]1[C@@H]2CC[C@@]2(C)[C@H]1CC[C@@]21CCC(=O)O1
7 | 25 | C[C@]12CCC(=O)CC1CC[C@@H]1[C@@H]2CC[C@@]2(C)[C@H]1CC[C@@]21CCC(=O)O1 (some centres undefined)
8 | 28 | C[C@]12CCC(=O)CC1C(=O)C[C@@H]1[C@@H]2CC[C@@]2(C)[C@H]1CC[C@@]21CCC(=O)O1 (some centres undefined)
9 | 3 | C[C@]12CCC(=O)C=C1CC[C@@H]1[C@@H]2CC[C@@]2(C)[C@H]1CC[C@@]21CCC(=O)O1
